Reference: publication PMC10952895, “Assessment of the potential of novel and classical opioids to induce respiratory depression in mice” (British Journal of Pharmacology, 2023)

Tested on: T1, μ-receptor (μ-receptor-RLuc8)
T1 construct: gene Oprm1; construct from Gillis, Gondin et al. 2020
Assay: BRET, Nb33-Venus recruitment to μ-receptor-RLuc8 in HEK293 cells
Type: cell-based
Conditions: agonist; 10 min after addition, normalised to DAMGO

Compound | pEC50
CN1c2ccccc2C(NCCCCCCC(=O)O)c2ccc(Cl)cc2S1(=O)=O (stereo not drawn) [tianeptine] | 5.8 ± 0.07
COc1ccc2c3c1O[C@H]1C(=O)CC[C@@]4(O)[C@@H](C2)N(C)CC[C@]314 [oxycodone] | 5.8 ± 0.05
COc1ccsc1CNCC[C@@]1(c2ccccn2)CCOC2(CCCC2)C1 [oliceridine] | 6.8 ± 0.1
